One series has as its system HIV-1 strain LAI. In words: Cellular anti-HIV assay (MT4/MTT), wild type. Type of series: cell-based. The conditions noted are these: MT4 cells, read-out: WT (pEC50) (converted). As to the method: The compounds of the present invention were examined for anti-viral activity in a cellular assay. […] The cellular assay was performed according to the following procedure. HIV- or mock-infected MT4 cells were incubated for five days in the presence of various concentrations of the inhibitor. […] Cell viability is measured by measuring the concentration of MTT, a yellow, water soluble tetrazolium dye that is converted to a purple, water insoluble formazan in the mitochondria of living cells only. Upon solubilization of the resulting formazan crystals with isopropanol, the absorbance of the solution is monitored at 540 nm. The values correlate directly to the number of living cells remaining in the culture at the completion of the five-day incubation. The inhibitory activity of the compound was monitored on the virus-infected cells and was expressed as EC50 and EC90. These values represent the amount of the compound required to protect 50% and 90%, respectively, of the cells from the cytopathogenic effect of the virus. […] The selectivity index (SI) (ratio CC50/EC50) is an indication of the selectivity of the anti-HIV activity of the inhibitor. Wherever results are reported as e.g. pEC50 or pCC50 values, the result is expressed as the negative logarithm of the result expressed as EC50 or CC50 respectively.

For the next series, the system named is mutant HIV strain A. In words: microbe, parasite or virus in culture. The format is cell-based. The conditions noted are these: for fold resistance Strain A: FR=EC50 (mutant strain)/EC50 (HIV-1 strain LAI); for EC50: Human immunodeficiency virus 1, MT4, read-out: pEC50 Strain A, mutant HIV strain A, MT4 cells (converted). As to the method: (§1) HIV- or mock-infected MT4 cells were incubated for five days in the presence of various concentrations of the inhibitor. […] Cell viability is measured by measuring the concentration of MTT, a yellow, water soluble tetrazolium dye that is converted to a purple, water insoluble formazan in the mitochondria of living cells only. Upon solubilization of the resulting formazan crystals with isopropanol, the absorbance of the solution is monitored at 540 nm. The values correlate directly to the number of living cells remaining in the culture at the completion of the five-day incubation. The inhibitory activity of the compound was monitored on the virus-infected cells and was expressed as EC50 and EC90. These values represent the amount of the compound required to protect 50% and 90%, respectively, of the cells from the cytopathogenic effect of the virus. […] The selectivity index (SI) (ratio CC50/EC50) is an indication of the selectivity of the anti-HIV activity of the inhibitor. Wherever results are reported as e.g. pEC50 or pCC50 values, the result is expressed as the negative logarithm of the result expressed as EC50 or CC50 respectively.

For the next series, the system named is mutant HIV strain B. Kind of series: microbe, parasite or virus in culture. The format is cell-based. The conditions noted are these: for fold resistance Strain B: FR=EC50 (mutant strain)/EC50 (HIV-1 strain LAI); for EC50: Human immunodeficiency virus 1, MT4, read-out: pEC50 Strain B, mutant HIV strain B, MT4 cells (converted). As to the method:
as §1

The subject of the next series is mutant HIV strain C. Kind of series: microbe, parasite or virus in culture. Type of series: cell-based. To be noted: for fold resistance Strain C: FR=EC50 (mutant strain)/EC50 (HIV-1 strain LAI); for EC50: Human immunodeficiency virus 1, MT4, read-out: pEC50 Strain C, mutant HIV strain C, MT4 cells (converted). As to the method: as §1
Another series has as its system mutant HIV strain D. Kind of series: microbe, parasite or virus in culture. The format is cell-based. To be noted: for fold resistance Strain D: FR=EC50 (mutant strain)/EC50 (HIV-1 strain LAI); for EC50: Human immunodeficiency virus 1, MT4, read-out: pEC50 Strain D, mutant HIV strain D, MT4 cells (converted). As to the method: as §1
The subject of another series is mutant HIV strain E. In words: microbe, parasite or virus in culture. The format is cell-based. The conditions noted are these: for fold resistance Strain E: FR=EC50 (mutant strain)/EC50 (HIV-1 strain LAI); for EC50: Human immunodeficiency virus 1, MT4, read-out: pEC50 Strain E, mutant HIV strain E, MT4 cells (converted). As to the method: as §1
The test system of the next series is mutant HIV strain F. Kind of series: microbe, parasite or virus in culture. The format is cell-based. To be noted: for fold resistance Strain F: FR=EC50 (mutant strain)/EC50 (HIV-1 strain LAI); for EC50: Human immunodeficiency virus 1, MT4, read-out: pEC50 Strain F, mutant HIV strain F, MT4 cells (converted). As to the method: as §1
A short description of series [1]: Toxicity on mock-infected cells (MTT). Type of series: cell-based. The conditions noted are these: human. As to the method:
HIV- or mock-infected MT4 cells were incubated for five days in the presence of various concentrations of the inhibitor. At the end of the incubation period, the replicating virus in the control cultures has killed all HIV-infected cells in the absence of any inhibitor. Cell viability is measured by measuring the concentration of MTT, a yellow, water soluble tetrazolium dye that is converted to a purple, water insoluble formazan in the mitochondria of living cells only. Upon solubilization of the resulting formazan crystals with isopropanol, the absorbance of the solution is monitored at 540 nm. The values correlate directly to the number of living cells remaining in the culture at the completion of the five-day incubation. The inhibitory activity of the compound was monitored on the virus-infected cells and was expressed as EC50 and EC90. These values represent the amount of the compound required to protect 50% and 90%, respectively, of the cells from the cytopathogenic effect of the virus. […] The selectivity index (SI) (ratio CC50/EC50) is an indication of the selectivity of the anti-HIV activity of the inhibitor. Wherever results are reported as e.g. pEC50 or pCC50 values, the result is expressed as the negative logarithm of the result expressed as EC50 or CC50 respectively.

A short description of a further series: Pharmacokinetics in rats. The format is in vivo, Whistar rats. The conditions noted are these: Whistar, rat, blood, 10 mpk, read-out: Cmax. As to the method:
The pharmacokinetic properties of some compounds of formula (I) were tested on rats and dogs. The compounds were evaluated in Whistar rats, source Iffa Credo, weighing approximately 350 g. Before dosing the animals were fasted overnight (approximately 12 h fasting period). The compounds were dissolved in DMSO or PEG 400. The results represented in the table concern the results from the oral or intra-peritoneal dosing of the compounds. Blood was sampled at 30 min, 1 h, 2 h, 3 h, no pre-dose sample was taken. The amount of the compound in the biological sample was determined using LC-MS. In the table below “or” means oral dosing, “ip” means intraperitoneal dosing, “mpk” means mg per kilogram.

[2] abbreviates: Human immunodeficiency virus 1, wild type HIV-1 strain LAI.
[3] abbreviates: ip, ip, DMSO, results normalized to 10 mpk.

Usually CC50 stands for the concentration at which the toxic effect on the cells reaches its halfway point. A low value points to greater toxicity to the cells. Broadly, the Cmax is the peak of the concentration-time curve.

Structures can show the parent of a compound that is named as a salt. Where two headings read alike, the source gives them in different places.

Take `CNc1nc2ccc(S(=O)(=O)N(CC(C)C)C[C@@H](O)[C@H](Cc3ccccc3)NC(=O)COc3c(C)cc(CN)cc3C)cc2s1` [Compound 25, 2-(4-aminomethyl-2,6-dimethyl-phenoxy)-N-{(1S,2R)-1-benzyl-2-hydroxy-3-[isobutyl-(2-methylamino-benzothiazole-6-sulfonyl)-amino]-propyl}-acetamide]: the EC50 in the series on HIV-1 strain LAI (setting [2]) was 4.07 nM. In the series with mutant HIV strain A, the “fold resistance Strain A” value came to 10.7 and the EC50 was 43.7 nM. For the same molecule, in the series on mutant HIV strain B, the “fold resistance Strain B” value is 4.9 and the EC50 was 20 nM. For the same molecule, in the series on mutant HIV strain C, the “fold resistance Strain C” value stood at 4.4 and the EC50 was 17.8 nM. Besides, in the series with mutant HIV strain D, the “fold resistance Strain D” value is listed as 10.0 and the EC50 is 40.7 nM. Besides, in the series on mutant HIV strain E, the “fold resistance Strain E” value was determined as 4.3 and the EC50 was 17.4 nM. In addition, in the series on mutant HIV strain F, the “fold resistance Strain F” value came to 117.5 and the EC50 was 479 nM. Also, half-maximal cytotoxicity in [1] (CC50 at 5 days) was put at 14100 nM. Besides, in the series “Pharmacokinetics in rats” (setting [3]), the Cmax turned out to be 453 ng/mL.

On to `CNc1nc2ccc(S(=O)(=O)N(CC(C)C)C[C@@H](O)[C@H](Cc3ccccc3)NC(=O)OCc3cnco3)cc2s1` [Compound 28, {(1S,2R)-1-benzyl-2-hydroxy-3-[isobutyl-(2-methylamino-benzothiazole-6-sulfonyl)-amino]-propyl}-carbamic acid oxazol-5-ylmethyl ester], for which the EC50 in the series with HIV-1 strain LAI (setting [2]) is 2.51 nM; in the series with mutant HIV strain A, 19.5 nM; in the series on mutant HIV strain B it was 5.62 nM; with mutant HIV strain C, 6.17 nM; with mutant HIV strain D, 37.2 nM; in the series on mutant HIV strain E, 7.08 nM. In addition, in the series on mutant HIV strain F, the EC50 was 77.6 nM. Besides, the “fold resistance Strain A” value in the series on mutant HIV strain A was 7.8. In addition, the “fold resistance Strain B” value in the series with mutant HIV strain B is reported as 2.2. Moreover, the “fold resistance Strain C” value with mutant HIV strain C worked out at 2.5. The “fold resistance Strain D” value in the series on mutant HIV strain D is reported as 14.8. Also, the “fold resistance Strain E” value in the series on mutant HIV strain E came out at 2.8. In the series on mutant HIV strain F, the “fold resistance Strain F” value was determined as 30.9. In addition, the Cmax in “Pharmacokinetics in rats” (setting [3]) was determined as 1000 ng/mL; in “Pharmacokinetics in rats” (po, or, DMSO, results normalized to 10 mpk), 540 ng/mL; in the series “Pharmacokinetics in rats” (po, or, PEG400, results normalized to 10 mpk) it was 430 ng/mL.

Regarding `CC(C)CN(C[C@@H](O)[C@H](Cc1ccccc1)NC(=O)OCc1ccccc1)S(=O)(=O)c1ccc2nc(N)sc2c1` [Compound 7, {(1S,2R)-3-[(2-amino-benzothiazole-6-sulfonyl)-isobutyl-amino]-1-benzyl-2-hydroxypropyl}-carbamic acid benzyl ester], the EC50 with HIV-1 strain LAI (setting [2]) is 5.89 nM. Besides, in the series on mutant HIV strain A, the “fold resistance Strain A” value is on record as 72.4 and the EC50 is 427 nM. In addition, in the series with mutant HIV strain B, the “fold resistance Strain B” value is 5.0 and the EC50 was 29.5 nM. In addition, in the series with mutant HIV strain C, the “fold resistance Strain C” value is 5.5 and the EC50 was 32.4 nM. For the same molecule, in the series with mutant HIV strain D, the “fold resistance Strain D” value came out at 20.0 and the EC50 is 117 nM. For the same molecule, in the series on mutant HIV strain E, the “fold resistance Strain E” value is given as 7.4 and the EC50 is 43.7 nM. In addition, in the series on mutant HIV strain F, the “fold resistance Strain F” value stood at 131.8 and the EC50 is 776 nM. The molecule further showed a 50% cytotoxic concentration (CC50) at 5 days in series [1] of 46800 nM.

As for `CNc1nc2ccc(S(=O)(=O)N(CC(C)C)C[C@@H](O)[C@H](Cc3ccccc3)NC(=O)c3cccc(N)c3C)cc2s1` [Compound 20, 3-amino-N-{(1S,2R)-1-benzyl-2-hydroxy-3-[isobutyl-(2-methylamino-benzothiazole-6-sulfonyl)-amino]-propyl}-2-methyl-benzamide trifluoroacetate], the EC50 in the series with HIV-1 strain LAI (Human immunodeficiency virus 1, MT4, wild type HIV-1 strain LAI) is 4.79 nM; with mutant HIV strain A it was 316 nM; with mutant HIV strain B, 24.5 nM; with mutant HIV strain C, 39.8 nM; in the series with mutant HIV strain D, 41.7 nM; in the series with mutant HIV strain E, 25.7 nM. Moreover, the EC50 with mutant HIV strain F is 759 nM. This molecule registered a CC50 at 5 days in [1] of over 100000 nM.

In the case of `Cc1cc(CN)cc(C)c1OCC(=O)N[C@@H](Cc1ccccc1)[C@H](O)CN(CC(C)C)S(=O)(=O)c1ccc2nc(N)sc2c1` [Compound 17, N-{(1S,2R)-3-[(2-amino-benzothiazole-6-sulfonyl)-isobutyl-amino]-1-benzyl-2-hydroxypropyl}-2-(4-aminomethyl-2,6-dimethyl-phenoxy)-acetamide], the EC50 in the series with HIV-1 strain LAI (setting [2]) was 7.08 nM. For the same molecule, in the series on mutant HIV strain A, the “fold resistance Strain A” value is 4.5 and the EC50 is 31.6 nM. In the series with mutant HIV strain B, the “fold resistance Strain B” value came out at 0.9 and the EC50 is 6.61 nM. For the same molecule, in the series with mutant HIV strain C, the “fold resistance Strain C” value is given as 1.7 and the EC50 is 12.3 nM. Also, in the series with mutant HIV strain D, the “fold resistance Strain D” value is reported as 3.3 and the EC50 is 23.4 nM. Also, in the series with mutant HIV strain E, the “fold resistance Strain E” value is on record as 1.1 and the EC50 was 7.59 nM. Further, in the series on mutant HIV strain F, the “fold resistance Strain F” value is 22.4 and the EC50 was 158 nM. The molecule further showed a CC50 at 5 days in [1] of 63100 nM.

Turning to `CNc1nc2ccc(S(=O)(=O)N(CC(C)C)C[C@@H](O)[C@H](Cc3ccccc3)NC(=O)c3ccc(Br)cc3C)cc2s1` [Compound 27, N-{(1S,2R)-1-benzyl-2-hydroxy-3-[isobutyl-(2-methylamino-benzothiazole-6-sulfonyl)-amino]-propyl}-4-bromo-2-methyl-benzamide], the EC50 in the series on HIV-1 strain LAI (setting [2]) was 19.1 nM; in the series with mutant HIV strain A it was 158 nM; in the series with mutant HIV strain B it was 20.4 nM; in the series with mutant HIV strain C, 5010 nM; in the series on mutant HIV strain D, 85.1 nM; in the series with mutant HIV strain E, 30.9 nM. The EC50 in the series with mutant HIV strain F was 646 nM. In addition, the “fold resistance Strain A” value in the series with mutant HIV strain A turned out to be 8.3. In addition, the “fold resistance Strain B” value with mutant HIV strain B is 1.1. The “fold resistance Strain C” value in the series on mutant HIV strain C was 263.0. Further, the “fold resistance Strain D” value in the series with mutant HIV strain D is given as 4.5. Further, in the series with mutant HIV strain E, the “fold resistance Strain E” value is recorded as 1.6. In addition, the “fold resistance Strain F” value in the series on mutant HIV strain F was found to be 33.9. In series [1], this molecule showed a CC50 at 5 days of over 100000 nM.
